Assays:
[1] = compound: CC(=O)Nc1cccc(-n2c(=O)n(C3CC3)c(=O)c3c(Nc4ccc(I)cc4F)n(C)c(=O)c(C)c32)c1
Ipatasertib/GDC0068 = compound: CC(C)NC[C@@H](C(=O)N1CCN(c2ncnc3c2[C@H](C)C[C@H]3O)CC1)c1ccc(Cl)cc1 [Ipatasertib/GDC0068]
[2] = compound: CCC1=CN=CN=C1N2CCN(CC2)CC3=NC4=C(N3)C=C(C=C4)C(F)(F)F
[3] = compound: CCN1CCN(Cc2ccc(Nc3ncc(F)c(-c4cc(F)c5nc(C)n(C(C)C)c5c4)n3)nc2)CC1
BSJ-01-175 = compound: CN(C)C/C=C/C(=O)Nc1ccc(O[C@@H]2CCC[C@@H](Nc3ncc(Cl)c(-c4c[nH]c5ccccc45)n3)C2)cc1 [BSJ-01-175]
AZD2014 = compound: CNC(=O)c1cccc(-c2ccc3c(N4CCOC[C@@H]4C)nc(N4CCOC[C@@H]4C)nc3n2)c1 [AZD2014]
[4] = compound: COc1ccc2c(c1)[C@]1(C[C@H]1c1ccc3c(/C=C/c4ccc(CN5C[C@@H](C)O[C@@H](C)C5)cc4)n[nH]c3c1)C(=O)N2
AZD6738 = compound: C[C@@H]1COCCN1c1cc(C2([S@](C)(=N)=O)CC2)nc(-c2cc[nH]c3nccc2-3)n1 [AZD6738]
AZD7762 = compound: NC(=O)Nc1cc(-c2cccc(F)c2)sc1C(=O)N[C@H]1CCCNC1 [AZD7762]
Vorinostat = compound: O=C(CCCCCCC(=O)Nc1ccccc1)NO [Vorinostat]
Tivantinib/ARQ197 = compound: O=C1NC(=O)[C@@H](c2cn3c4c(cccc24)CCC3)[C@@H]1c1c[nH]c2ccccc12 [Tivantinib/ARQ197]
BSJ-03-123 = compound: CC(=O)c1c(C)c2cnc(Nc3ccc(N4CCN(CCOCCOCCOCCNC(=O)COc5cccc6c5C(=O)N(C5CCC(=O)NC5=O)C6=O)CC4)cn3)nc2n(C2CCCC2)c1=O [BSJ-03-123]; test: increase in dead-cell fraction, 72 h; higher = more death;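 further: breast cancer cell lines in 384-well plates, stained with Hoechst plus LIVE/DEAD far red dye and imaged, cells above an LDR intensity threshold counted dead, Hoechst-negative corpses included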
[5] = compound: CC(=O)c1c(C)c2cnc(Nc3ccc(N4CCNCC4)cn3)nc2n(C2CCCC2)c1=O; test: as above
[6] = compound: CCN1CCN(Cc2ccc(Nc3ncc(F)c(-c4cc(F)c5nc(C)n(C(C)C)c5c4)n3)nc2)CC1; test: as above
Neratinib/HKI272 = compound: CCOc1cc2ncc(C#N)c(Nc3ccc(OCc4ccccn4)c(Cl)c3)c2cc1NC(=O)/C=C/CN(C)C [Neratinib/HKI272]; test: as above
[7] = compound: CCc1cnn2c(NCc3ccc[n+]([O-])c3)cc(N3CCCC[C@H]3CCO)nc12; test: as above
LEE011/Ribociclib = compound: CN(C)C(=O)c1cc2cnc(Nc3ccc(N4CCNCC4)cn3)nc2n1C1CCCC1 [LEE011/Ribociclib]; test: as above
THZ1 = compound: CN(C)C/C=C/C(=O)Nc1ccc(C(=O)Nc2cccc(Nc3ncc(Cl)c(-c4c[nH]c5ccccc45)n3)c2)cc1 [THZ1]; test: as above
Flavopiridol = compound: CN1CC[C@H](c2c(O)cc(O)c3c(=O)cc(-c4ccccc4Cl)oc23)[C@H](O)C1 [Flavopiridol]; test: as above
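Wherever GR50, 72 h is given: breast cancer and non-malignant breast epithelial cell lines, Deep Dye Drop or Dye Drop imaging, nine half-log doses, GR normalized to time-zero plates and DMSO-only controls.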

Question: For HCC1395, which “GR50, 72 h” value [1] is on record?
Answer: 0.172 µM

Question: What about the “GR50, 72 h” value (Ipatasertib/GDC0068) of the same cell line?
Answer: 0.926 µM

Question: And the “GR50, 72 h” value [2]?
Answer: > 10 µM

Question: What about the “GR50, 72 h” value [3] of the same cell line?
Answer: 0.112 µM

Question: What about the “GR50, 72 h” value (BSJ-01-175) of the same cell line?
Answer: 0.015 µM

Question: What about the “GR50, 72 h” value (AZD2014) of the same cell line?
Answer: 0.0101 µM

Question: What about the “GR50, 72 h” value [4] of the same cell line?
Answer: 0.00377 µM

Question: And the “GR50, 72 h” value (AZD6738)?
Answer: 1.81 µM

Question: And the “GR50, 72 h” value (AZD7762)?
Answer: 0.0217 µM

Question: And the “GR50, 72 h” value (Vorinostat)?
Answer: 3.27 µM

Question: What about the “GR50, 72 h” value (Tivantinib/ARQ197) of the same cell line?
Answer: 0.481 µM

Question: And the “increase in dead-cell fraction” value (BSJ-03-123; 0.001 µM)?
Answer: 0.0154

Question: What about the “increase in dead-cell fraction” value (BSJ-03-123; 0.003162 µM) of the same cell line?
Answer: 0.0016

Question: And the “increase in dead-cell fraction” value (BSJ-03-123; 0.01 µM)?
Answer: 0.0046

Question: And the “increase in dead-cell fraction” value (BSJ-03-123; 0.03162 µM)?
Answer: 0.0156

Question: What about the “increase in dead-cell fraction” value (BSJ-03-123; 0.1 µM) of the same cell line?
Answer: 0.0199

Question: And the “increase in dead-cell fraction” value (BSJ-03-123; 0.3162 µM)?
Answer: 0.0113

Question: What about the “increase in dead-cell fraction” value (BSJ-03-123; 1 µM) of the same cell line?
Answer: 0.0316

Question: What about the “increase in dead-cell fraction” value (BSJ-03-123; 3.162 µM) of the same cell line?
Answer: 0.0201

Question: And the “increase in dead-cell fraction” value (BSJ-03-123; 10 µM)?
Answer: 0.13

Question: What about the “increase in dead-cell fraction” value ([5]; 0.0003162 µM) of the same cell line?
Answer: -0.0002

Question: And the “increase in dead-cell fraction” value ([5]; 0.001 µM)?
Answer: -0.0025

Question: And the “increase in dead-cell fraction” value ([5]; 0.003162 µM)?
Answer: -0.0071

Question: What about the “increase in dead-cell fraction” value ([5]; 0.01 µM) of the same cell line?
Answer: 0.0129

Question: And the “increase in dead-cell fraction” value ([5]; 0.03162 µM)?
Answer: 0.0232

Question: What about the “increase in dead-cell fraction” value ([5]; 0.1 µM) of the same cell line?
Answer: 0.0283

Question: And the “increase in dead-cell fraction” value ([5]; 0.3162 µM)?
Answer: 0.0367

Question: What about the “increase in dead-cell fraction” value ([5]; 1 µM) of the same cell line?
Answer: 0.0326

Question: And the “increase in dead-cell fraction” value ([5]; 3.162 µM)?
Answer: 0.0325

Question: What about the “increase in dead-cell fraction” value ([6]; 0.001 µM) of the same cell line?
Answer: 0.0055

Question: And the “increase in dead-cell fraction” value ([6]; 0.003162 µM)?
Answer: -0.0031

Question: What about the “increase in dead-cell fraction” value ([6]; 0.01 µM) of the same cell line?
Answer: 0.0123

Question: And the “increase in dead-cell fraction” value ([6]; 0.03162 µM)?
Answer: 0.0119

Question: And the “increase in dead-cell fraction” value ([6]; 0.1 µM)?
Answer: 0.0163

Question: And the “increase in dead-cell fraction” value ([6]; 0.3162 µM)?
Answer: 0.0184

Question: And the “increase in dead-cell fraction” value ([6]; 1 µM)?
Answer: 0.0343

Question: And the “increase in dead-cell fraction” value ([6]; 3.162 µM)?
Answer: 0.0632

Question: What about the “increase in dead-cell fraction” value ([6]; 10 µM) of the same cell line?
Answer: 0.447

Question: What about the “increase in dead-cell fraction” value (Neratinib/HKI272; 0.0003162 µM) of the same cell line?
Answer: 0.0064

Question: And the “increase in dead-cell fraction” value (Neratinib/HKI272; 0.001 µM)?
Answer: -0.004

Question: What about the “increase in dead-cell fraction” value (Neratinib/HKI272; 0.003162 µM) of the same cell line?
Answer: 0.0024

Question: What about the “increase in dead-cell fraction” value (Neratinib/HKI272; 0.01 µM) of the same cell line?
Answer: 0.0027

Question: What about the “increase in dead-cell fraction” value (Neratinib/HKI272; 0.03162 µM) of the same cell line?
Answer: -0.0039

Question: And the “increase in dead-cell fraction” value (Neratinib/HKI272; 0.1 µM)?
Answer: 0.0013

Question: And the “increase in dead-cell fraction” value (Neratinib/HKI272; 0.3162 µM)?
Answer: 0.0091

Question: What about the “increase in dead-cell fraction” value (Neratinib/HKI272; 1 µM) of the same cell line?
Answer: 0.012

Question: And the “increase in dead-cell fraction” value (Neratinib/HKI272; 3.162 µM)?
Answer: 0.141

Question: What about the “increase in dead-cell fraction” value ([7]; 0.0001 µM) of the same cell line?
Answer: 0.005

Question: And the “increase in dead-cell fraction” value ([7]; 0.0003162 µM)?
Answer: -0.0006

Question: What about the “increase in dead-cell fraction” value ([7]; 0.001 µM) of the same cell line?
Answer: -0.004

Question: What about the “increase in dead-cell fraction” value ([7]; 0.003162 µM) of the same cell line?
Answer: 0.0091

Question: What about the “increase in dead-cell fraction” value ([7]; 0.01 µM) of the same cell line?
Answer: 0.0238

Question: What about the “increase in dead-cell fraction” value ([7]; 0.03162 µM) of the same cell line?
Answer: 0.263

Question: What about the “increase in dead-cell fraction” value ([7]; 0.1 µM) of the same cell line?
Answer: 0.368

Question: And the “increase in dead-cell fraction” value ([7]; 0.3162 µM)?
Answer: 0.378

Question: And the “increase in dead-cell fraction” value ([7]; 1 µM)?
Answer: 0.387

Question: And the “increase in dead-cell fraction” value (LEE011/Ribociclib; 0.001 µM)?
Answer: -0.0137

Question: What about the “increase in dead-cell fraction” value (LEE011/Ribociclib; 0.003162 µM) of the same cell line?
Answer: 0.0153

Question: And the “increase in dead-cell fraction” value (LEE011/Ribociclib; 0.01 µM)?
Answer: 0.0143

Question: And the “increase in dead-cell fraction” value (LEE011/Ribociclib; 0.03162 µM)?
Answer: 0.0111

Question: And the “increase in dead-cell fraction” value (LEE011/Ribociclib; 0.1 µM)?
Answer: 0.0234

Question: What about the “increase in dead-cell fraction” value (LEE011/Ribociclib; 0.3162 µM) of the same cell line?
Answer: 0.0259

Question: What about the “increase in dead-cell fraction” value (LEE011/Ribociclib; 1 µM) of the same cell line?
Answer: 0.0472

Question: And the “increase in dead-cell fraction” value (LEE011/Ribociclib; 3.162 µM)?
Answer: 0.0158

Question: And the “increase in dead-cell fraction” value (LEE011/Ribociclib; 10 µM)?
Answer: 0.0578

Question: And the “increase in dead-cell fraction” value (THZ1; 0.0001 µM)?
Answer: -0.017

Question: What about the “increase in dead-cell fraction” value (THZ1; 0.0003162 µM) of the same cell line?
Answer: -0.002

Question: And the “increase in dead-cell fraction” value (THZ1; 0.001 µM)?
Answer: -0.0182

Question: And the “increase in dead-cell fraction” value (THZ1; 0.003162 µM)?
Answer: 0.0057

Question: And the “increase in dead-cell fraction” value (THZ1; 0.01 µM)?
Answer: 0.0001

Question: And the “increase in dead-cell fraction” value (THZ1; 0.03162 µM)?
Answer: 0.0489

Question: And the “increase in dead-cell fraction” value (THZ1; 0.1 µM)?
Answer: 0.193

Question: What about the “increase in dead-cell fraction” value (THZ1; 0.3162 µM) of the same cell line?
Answer: 0.25

Question: What about the “increase in dead-cell fraction” value (THZ1; 1 µM) of the same cell line?
Answer: 0.469

Question: And the “increase in dead-cell fraction” value (Flavopiridol; 0.0001 µM)?
Answer: -0.0165

Question: What about the “increase in dead-cell fraction” value (Flavopiridol; 0.0003162 µM) of the same cell line?
Answer: 0.0036

Question: What about the “increase in dead-cell fraction” value (Flavopiridol; 0.001 µM) of the same cell line?
Answer: -0.001

Question: And the “increase in dead-cell fraction” value (Flavopiridol; 0.003162 µM)?
Answer: 0.0024

Question: And the “increase in dead-cell fraction” value (Flavopiridol; 0.01 µM)?
Answer: 0.0179

Question: What about the “increase in dead-cell fraction” value (Flavopiridol; 0.03162 µM) of the same cell line?
Answer: -0.0053

Question: And the “increase in dead-cell fraction” value (Flavopiridol; 0.1 µM)?
Answer: -0.0066

Question: And the “increase in dead-cell fraction” value (Flavopiridol; 0.3162 µM)?
Answer: 0.0777

Question: What about the “increase in dead-cell fraction” value (Flavopiridol; 1 µM) of the same cell line?
Answer: 0.306

From the supplement of paper PMC9663587
